In patent EP0063525A1, “Dibenzazepine tetracyclic derivatives, process for their preparation and pharmaceutical compositions containing them” (CENTRE NATIONAL DE LA RECHERCHE SCIENTIFIQUE (CNRS), priority 1981, dated 1982):
Where two headings read alike, the source gives them in different places.

Experiments:
Souris [1] = test: tetrabenazine ptosis; assay type: in vivo; details: for Ptosis 30 minutes / Ptosis 60 minutes / Ptosis 90 minutes / Ptosis 120 minutes: score 0-4 per eye
Procedure: (§1) Ce test permet de révéler également une activité antidépressive avec l'avantage d'une lecture plus rapide qu'avec la réserpine.
(§2) Les souris sont réparties par lots de 5.
Le ptosis est noté avant l'injection de tétrabénazine, 30 minutes, 60 minutes, 90 minutes et 120 minutes après.
On a adopté la notation suivante : • - 0 : pour un oeil ouvert, • - 1 : pour un oeil fermé au quart, • - 2 : pour un oeil fermé à moitié, • - 3 : pour un oeil fermé aux trois-quarts, • - 4 : pour un oeil fermé complètement.
(§3) Le lot témoin comprend 20 souris.

[2] = acute toxicity in the mouse, intraperitoneal; assay type: in vivo, Souris; details: mouse, in vivo, ip, voie intrapéritonéale; for LD50 at 48 h: souris femelles, read-out: DL 50; for mortality at 48 h: read-out: Mortalité %
Text: (§4) Les produits ont été administrés par voie intrapéritonéale à des souris femelles dont le poids variait de 18 à 30 g.
(§5) Les animaux injectés ont été maintenus dans une salle thermostatée, nourris et abreuvés à volonté.
(§6) La mortalité a été relevée à 1 heure, 4 heures, 24 heures et 48 heures.

souris femelles = test: acute toxicity in the mouse, intraperitoneal; assay type: in vivo; details: voie intrapéritonéale, dead mice of the group
Text: as §4, §5, §6

Souris [3] = test: tetrabenazine hypothermia; assay type: in vivo
Procedure: as §1
Les produits sont injectés 30 minutes avant l'administration de tétrabénazine.
Les températures sont relevées aux temps : 0, 30 minutes, 60 minutes, 90 minutes et 120 minutes.
as §2
Les températures sont relevées avant l'injection de tétrabénazine, 30 minutes, 60 minutes, 90 minutes et 120 minutes après.
as §3

Souris [4] = test: antireserpine activity: reserpine hypothermia; assay type: in vivo; details: réserpine 5 mg/kg i.p. 17 h before
Procedure: On note ensuite les températures témoins (réserpine), puis les températures 1, 2, 3 et 4 heures après l'administration des produits étudiés.
Les animaux sont répartis en lots de 4 animaux et reçoivent par voie intrapéritonéale la réserpine à une dose de 5 mg/kg. 17 heures après cette injection, on mesure la température corporelle de l'animal à l'aide d'une sonde thermocouple introduite dans le rectum; chaque lot reçoit ensuite la substance par voie intrapéritonéale. Le lot témoin reçoit la même quantité de solvant et par la même voie. La température corporelle est ensuite mesurée toutes les heures pendant 4 heures.
Les résultats sont rassemblés dans un tableau récapitulatif-où sont indiqués : • - la température moyenne pour chaque lot relevée 17 heures après l'injection de la réserpine, • - la moyenne des variations de température pour chaque lot relevées 1,2, 3 et 4 heures après l'injection de la substance étudiée, • - la somme des variations de températures pendant 4 heures, • - le pourcentage d'augmentation de la température pour chaque produit par rapport aux témoins.

[5] = product i.p. 100 mg/kg 30 min before tétrabénazine 32 mg/kg i.v.
[6] = product i.p. 25 mg/kg 30 min before tétrabénazine 32 mg/kg i.v.
[7] = ip, 2 h, ptosis, product i.p. 50 mg/kg 30 min before tétrabénazine 32 mg/kg i.v., read-out: % de protection
[8] = product i.p. 50 mg/kg 30 min before tétrabénazine 32 mg/kg i.v.
[9] = ip, 2 h, hypothermie, product i.p. 50 mg/kg 30 min before tétrabénazine 32 mg/kg i.v., read-out: % de protection
[10] = ip, 4 h, product i.p. 50 mg/kg, read-out: % d'augmentation par rapport aux témoins

CN(C)CCN1c2ccccc2C2C(c3ccccc3)=NN(c3ccccc3)C2c2ccccc21 (stereo not drawn) [compound 7, (β-diméthylaminoéthyl)-8 diphényl-1,3 tétrahydro-1,3a, 8, 12b (dibenzo [b,f]pyrazolo [3,4-d]) azépine]
inhibition in vivo at 100 mg/kg (Souris [1]; ip, 2 h, ptosis, product i.p. 100 mg/kg 30 min before tétrabénazine 32 mg/kg i.v., read-out: % de protection): 14%
Ptosis Total (Souris [1]; [5]): 25,8
Ptosis 30 minutes (Souris [1]; [5]): 3,8
Ptosis 60 minutes (Souris [1]; [5]): 7
Ptosis 90 minutes (Souris [1]; [5]): 7
Ptosis 120 minutes (Souris [1]; [5]): 8
LD50 at 48 h [2]: > 500 mg/kg
mortality at 48 h ([2]; 250 mg/kg): 0%
mortality at 48 h ([2]; 500 mg/kg): 0%
Mortalité en 1 heure (souris femelles; 250 mg/kg): 0
Mortalité en 48 h. (souris femelles; 250 mg/kg): 0
Mortalité en 1 heure (souris femelles; 500 mg/kg): 0
Mortalité en 48 h. (souris femelles; 500 mg/kg): 0
Mortalité en 1 heure (souris femelles; 900 mg/kg): 1
Mortalité en 48 h. (souris femelles; 900 mg/kg): 1
inhibition in vivo at 100 mg/kg (Souris [3]; ip, 2 h, hypothermie, product i.p. 100 mg/kg 30 min before tétrabénazine 32 mg/kg i.v., read-out: % de protection): 26%
Température après tétrabénazine 30 minutes (Souris [3]; [5]): -3,2
Température après tétrabénazine 60 minutes (Souris [3]; [5]): -1,3
Température après tétrabénazine 90 minutes (Souris [3]; [5]): -1
Température après tétrabénazine 120 minutes (Souris [3]; [5]): -0,8
Température après tétrabénazine Total (Souris [3]; [5]): -6,3
change in vivo at 100 mg/kg (Souris [4]; ip, 4 h, product i.p. 100 mg/kg, read-out: % d'augmentation par rapport aux témoins): 125%
variation de température T= 2h (Souris [4]; product i.p. 100 mg/kg): +1,1
variation de température T=3h (Souris [4]; product i.p. 100 mg/kg): +0,7
variation de température T=4h (Souris [4]; product i.p. 100 mg/kg): +0,1

CC(CN(C)C)CN1c2ccccc2C=Cc2ccccc21 (centres unmarked) [compound 22, (méthyl-2 diméthylamino-3 propyl)-5 dibenzo [b,f] 5H azépine, reference compound]
inhibition in vivo at 25 mg/kg (Souris [1]; ip, 2 h, ptosis, product i.p. 25 mg/kg 30 min before tétrabénazine 32 mg/kg i.v., read-out: % de protection): 11%
Ptosis Total (Souris [1]; [6]): 26,8
Ptosis 30 minutes (Souris [1]; [6]): 5,6
Ptosis 60 minutes (Souris [1]; [6]): 6,8
Ptosis 90 minutes (Souris [1]; [6]): 6,8
Ptosis 120 minutes (Souris [1]; [6]): 7,6
LD50 at 48 h [2]: 75 mg/kg
mortality at 48 h ([2]; 25 mg/kg): 0%
mortality at 48 h ([2]; 50 mg/kg): 20%
mortality at 48 h ([2]; 100 mg/kg): 100%
Mortalité en 1 heure (souris femelles; 25 mg/kg): 0
Mortalité en 48 heures (souris femelles; 25 mg/kg): 0
Mortalité en 1 heure (souris femelles; 50 mg/kg): 0
Mortalité en 48 h. (souris femelles; 50 mg/kg): 1
Mortalité en 1 heure (souris femelles; 100 mg/kg): 4
Mortalité en 48 h. (souris femelles; 100 mg/kg): 5
inhibition in vivo at 25 mg/kg (Souris [3]; ip, 2 h, hypothermie, product i.p. 25 mg/kg 30 min before tétrabénazine 32 mg/kg i.v., read-out: % de protection): 50%
Température après tétrabénazine 30 minutes (Souris [3]; [6]): -3,5
Température après tétrabénazine 60 minutes (Souris [3]; [6]): -0,1
Température après tétrabénazine 90 minutes (Souris [3]; [6]): -0,6
Température après tétrabénazine 120 minutes (Souris [3]; [6]): -0,1
Température après tétrabénazine Total (Souris [3]; [6]): -4,3
change in vivo at 25 mg/kg (Souris [4]; ip, 4 h, product i.p. 25 mg/kg, read-out: % d'augmentation par rapport aux témoins): 85%
variation de température T= 2h (Souris [4]; product i.p. 25 mg/kg): +0,5
variation de température T=3h (Souris [4]; product i.p. 25 mg/kg): +1
variation de température T=4h (Souris [4]; product i.p. 25 mg/kg): +0,4

CN(C)CCCN1c2ccccc2-c2onc(-c3ccccc3)c2-c2ccccc21 [compound 18]
inhibition in vivo at 50 mg/kg (Souris [1]; [7]): 24%
Ptosis Total (Souris [1]; [8]): 23
Ptosis 30 minutes (Souris [1]; [8]): 3,6
Ptosis 60 minutes (Souris [1]; [8]): 5,8
Ptosis 90 minutes (Souris [1]; [8]): 6,4
Ptosis 120 minutes (Souris [1]; [8]): 7,2
LD50 at 48 h [2]: 225 mg/kg
mortality at 48 h ([2]; 50 mg/kg): 0%
mortality at 48 h ([2]; 100 mg/kg): 0%
mortality at 48 h ([2]; 150 mg/kg): 0%
mortality at 48 h ([2]; 200 mg/kg): 100%
mortality at 48 h ([2]; 250 mg/kg): 100%
Mortalité en 1 heure (souris femelles; 50 mg/kg): 0
Mortalité en 48 h. (souris femelles; 50 mg/kg): 0
Mortalité en 1 heure (souris femelles; 100 mg/kg): 0
Mortalité en 48 h. (souris femelles; 100 mg/kg): 0
Mortalité en 1 heure (souris femelles; 150 mg/kg): 0
Mortalité en 48 h. (souris femelles; 150 mg/kg): 0
Mortalité en 1 heure (souris femelles; 200 mg/kg): 5
Mortalité en 48 h. (souris femelles; 200 mg/kg): 5
Mortalité en 1 heure (souris femelles; 250 mg/kg): 4
Mortalité en 48 h. (souris femelles; 250 mg/kg): 5
inhibition in vivo at 50 mg/kg (Souris [3]; [9]): 8%
Température après tétrabénazine 30 minutes (Souris [3]; [8]): -3,1
Température après tétrabénazine 60 minutes (Souris [3]; [8]): -1,8
Température après tétrabénazine 90 minutes (Souris [3]; [8]): -1,9
Température après tétrabénazine 120 minutes (Souris [3]; [8]): -1,1
Température après tétrabénazine Total (Souris [3]; [8]): -7,9
change in vivo at 50 mg/kg (Souris [4]; [10]): 25%
change in vivo at 150 mg/kg (Souris [4]; ip, 4 h, product i.p. 150 mg/kg, read-out: % d'augmentation par rapport aux témoins): 175%

CN(C)CCCN1c2ccccc2C2ON=C(c3ccccc3)C2c2ccccc21 (centres unmarked) [compound 3, (γ-diméthylaminopropyl)-8 phényl-3 trihydro-3a, 8,12b (dibenzo [b,f]isoxazolo [4,5-d])azépine]
inhibition in vivo at 50 mg/kg (Souris [1]; [7]): 32%
Ptosis Total (Souris [1]; [8]): 20,4
Ptosis 30 minutes (Souris [1]; [8]): 1,6
Ptosis 60 minutes (Souris [1]; [8]): 5,2
Ptosis 90 minutes (Souris [1]; [8]): 6,8
Ptosis 120 minutes (Souris [1]; [8]): 6,8
LD50 at 48 h [2]: 200 mg/kg
mortality at 48 h ([2]; 100 mg/kg): 0%
mortality at 48 h ([2]; 150 mg/kg): 0%
mortality at 48 h ([2]; 200 mg/kg): 40%
mortality at 48 h ([2]; 250 mg/kg): 100%
Mortalité en 1 heure (souris femelles; 100 mg/kg): 0
Mortalité en 48 h. (souris femelles; 100 mg/kg): 0
Mortalité en 1 heure (souris femelles; 150 mg/kg): 0
Mortalité en 48 h. (souris femelles; 150 mg/kg): 0
Mortalité en 1 heure (souris femelles; 200 mg/kg): 2
Mortalité en 48 h. (souris femelles; 200 mg/kg): 2
Mortalité en 1 heure (souris femelles; 250 mg/kg): 5
Mortalité en 48 h. (souris femelles; 250 mg/kg): 5
inhibition in vivo at 50 mg/kg (Souris [3]; [9]): 40%
Température après tétrabénazine 30 minutes (Souris [3]; [8]): -0,9
Température après tétrabénazine 60 minutes (Souris [3]; [8]): -1,2
Température après tétrabénazine 90 minutes (Souris [3]; [8]): -2,6
Température après tétrabénazine 120 minutes (Souris [3]; [8]): -0,4
Température après tétrabénazine Total (Souris [3]; [8]): -5,1
change in vivo at 50 mg/kg (Souris [4]; [10]): 125%
variation de température T= 2h (Souris [4]; product i.p. 50 mg/kg): +0,9
variation de température T=3h (Souris [4]; product i.p. 50 mg/kg): +0,9
variation de température T=4h (Souris [4]; product i.p. 50 mg/kg): +0,1
